Source: patent US20160022689A1, “Triazine compound for resisting coccidiosis in chickens” (SHANGHAI VETERINARY RESEARCH INSTITUTE, CHINESE ACADEMY OF …, priority 2013, published 2016)
“And” between values parts separate entries of the source, which are not always exact repeats. Equal entries are not always repeated. Where two headings read alike, the source gives them in different places.

Tests used:
[1] = tested on: Eimeria tenella; assay: AZL application in preventing the coccidiosis induced by Eimeria tenella (drug in feed, infected cockerels); type: in vivo; parameters: key to ACI (anticoccidial index): ACI = (rel. weight gain + survival) − (lesion score + oocyst value); key to Cecal lesion score: average Johnson-Reid lesion score in group ×10; conditions: for ACI (anticoccidial index): ACI=(relative weight gain rate+survival rate)-(cecal lesion score+oocyst value); for Cecal lesion score: average lesion score in group x10; for Survival rate %: cockerels infected with 80000 sporulated oocysts of Eimeria tenella; for Relative weight gain rate %: relative to healthy control group; for Oocyst value: score from OPG ratio to infection control
Protocol: Application of AZL in Preventing the Coccidiosis Induced by Eimeria tenella
One-day-old Pudong yellow feather cockerels
If needed, it is added into the chicken compound feed without other drugs and well mixed. Two AZL concentrations are set: 5 mg/kg and 10 mg/kg.
If needed, it is added into the compound feed without other drugs and well mixed. Two drug concentrations are set: 5 mg/kg and 10 mg/kg.
4) Raw diclazuril material: If needed, it is added into the compound feed without other drugs and well mixed, with the diclazuril concentration of 1 mg/kg.
After 90 one-day-old Pudong yellow feather cockerels were raised in the healthy animal room for 14 days. They were divided into 9 groups randomly, with 10 cockerels each group. One of these groups was the healthy control group. The AZL addition groups had two different treatments (5 mg/kg and 10 mg/kg). In the groups with the addition of compounds with structural formula (IV) and (V) respectively, two concentrations were set as AZL. The diclazuril addition group at the concentration of 1 mg/kg was taken as drug control group. Besides, an infection control group was also established.
After grouping, the seven drug addition groups were fed with the feed containing specified drugs, while infection and healthy control groups were fed using pure feed without drugs. Each group drank freely. At the age of 15 day old, each cockerel in all the groups was infected with 80000 sporulated oocysts of Eimeria tenella, except for the healthy control group.
During the experimental period, food and water intake, mental state, illness and bloody stool were observed and recorded every day. At 5, 6 and 7 d after infection, the excrement in each group was collected to count the number of oocysts. The highest value was used for ACI calculation. During the experimental period, chicken death status was observed every day and the dead ones were autopsied. On the 8th day, chickens in all the groups were weighted and killed to observe and record weight gain and cecal lesion status.
1.5.1 Death rate: The percentage of the number of dead chicken because of infection to total number of experimental chicken.
1.5.2 Relative weight gain rate: The percentage of average weight gain of chickens in each infection group to that in the healthy control group
1.5.3 Cecal lesion score: It is scored by referring to the method by Johnson and Reid (Johnson J, Reid W M. Anticoccidial drugs: lesion scoring techniques in battery and floor-pan experiments with chickens.
Experimental Parasitology, 1970, 28 (1): 30-36). Cecal lesion score=average lesion score in a group×10.
1.5.4 Oocyst value: Cecal contents from all the chickens in each group were well mixed. The number of oocysts per gram (OPG) was calculated via Mc-Master's method. Ratio of oocyst number=(OPG in the negative control group or drug addition group÷OPG in the positive control group)×100% If the ratio is 0-1%, oocyst value is 0; if the ratio is 2%-25%, oocyst value is 5; if the ratio is 26%-50%, oocyst value is 10; if the ratio is 51%-75%, oocyst value is 20; if the ratio is 76%-100%, oocyst value is 40.
1.5.5 Anticoccidial index: ACI=(relative weight gain rate+survival rate)−(cecal lesion score+oocyst value)

[2] = Acute toxicity test (LD50) of AZL in rats, oral gavage; type: in vivo, rat; conditions: both sexes, Sprague Dawley, rat, in vivo, po, single oral gavage, improved Karber's method
Protocol: (§1) Acute Toxicity Test (LD50) of AZL in Rats
(§2) AZL (99.10%): made by Shanghai Veterinary Research Institute, CAAS
(§3) Drug solvent: 0.5% sodium carboxymethyl cellulose
(§4) Before administration, AZL was added into 0.5% sodium carboxymethyl cellulose to prepare suspensions at different concentrations.
(§5) 1.2 Experimental animals: Specific pathogen-free (SPF) Sprague Dawley rats (50% female vs 50% male) were purchased from Shanghai Super-B&K laboratory animal Co., Ltd. (license number: SCXK (Hu): 2008-0016). Male and female rats were raised separately in the cages for more than 4 days before the experiments.
(§6) Through repeated preliminary experiments, the interval of LD0-LD100 was determined According to this interval, groups were divided and the interval between groups was determined. Eighty rats (180-220 g) were selected and randomly divided into 8 groups. Each group had 10 rats, with the same number of female and male. Drug dosage in 7 groups were 2358, 3000, 3817, 4856, 6178, 7860, and 10000 mg/kg, respectively. The rats in these groups received oral gavage once. The remaining one group was chosen as negative control group which was drenched orally with drug solvent. After administration, this group was continuously observed for 14 days to calculate the death rate.

[3] = tested on: Sprague Dawley rats; assay: as above; type: in vivo, rat; conditions: oral gavage once, 14 days
Protocol: as §1, §2, §3, §4, §5, §6

[4] = tested on: rats; conditions: acute oral, improved Karber's method; cited from earlier work
[5] = drug concentration in feed 5 mg/kg
[6] = drug concentration in feed 10 mg/kg
[7] = drug concentration in feed 1 mg/kg

In the case of `CC(=O)Nc1ccc(Oc2ccc(-n3ncc(=O)[nH]c3=O)cc2C)cc1` [AZL, 2-{3-methyl-4-(4′-acetamidophenoxy)phenyl}-1,2,4-triazine-3,5(2H,4H)^− diketone], the “ACI (anticoccidial index)” value [1, 5] is reported as 180.8, the Cecal lesion score [1, 5] is reported as 5 and the Survival rate % [1, 5] is reported as 100%. For the same compound, the “Relative weight gain rate %” value [1, 5] was 90.8%, the Oocyst value [1, 5] was 5 and the “ACI (anticoccidial index)” value [1, 6] was 189 and 189.1. For the same compound, the “ACI (anticoccidial index)” value ([1]; drug concentration in feed 10 mg/kg, listed as compound with structural formula (I)) was 189, the Cecal lesion score [1, 6] was 5 and the Survival rate % [1, 6] was 100%. The “Relative weight gain rate %” value [1, 6] was 99.1%, the Oocyst value [1, 6] was 5 and the LD50 at 14 days ([2]; 14 days observation, read-out: LD50) was 4740 mg/kg. It also gave an LD50 at 14 days ([2]; read-out: 95% confidence limit of LD50) of 3750 to 5990 mg/kg, a Death rate % ([3]; dosage 2358 mg/kg) of 0% and a Death rate % ([3]; dosage 3000 mg/kg) of 30%. The Death rate % ([3]; dosage 3817 mg/kg) was 50%, the Death rate % ([3]; dosage 4856 mg/kg) was 50% and the Death rate % ([3]; dosage 6178 mg/kg) was 70%. For the same compound, the Death rate % ([3]; dosage 7860 mg/kg) was 70% and the Death rate % ([3]; dosage 10000 mg/kg) was 90%.

For `Cc1cc(-n2ncc(=O)[nH]c2=O)ccc1Oc1ccc([N+](=O)[O-])cc1` [Compound with structural formula IV, 2-{3-methyl-4-(4′-nitrophenoxy)phenyl}-1,2,4-triazine-3,5(2H,4H)-diketone, reference compound], the “ACI (anticoccidial index)” value [1, 5] was 182.2, the Cecal lesion score [1, 5] was 5 and the Survival rate % [1, 5] was 100%. For the same compound, the “Relative weight gain rate %” value [1, 5] was 92.2%, the Oocyst value [1, 5] was 5 and the “ACI (anticoccidial index)” value [1, 6] was 190.0. The Cecal lesion score [1, 6] was 5, the Survival rate % [1, 6] was 100% and the “Relative weight gain rate %” value [1, 6] was 95.0%. The Oocyst value [1, 6] was 0, the “95% confidence limit of LD50” value [4] was 644 to 916 mg/kg and the “median lethal dose (LD50)” value [4] was 768 mg/kg.

For `Cc1cc(-n2ncc(=O)[nH]c2=O)ccc1Oc1ccc(N)cc1` [Compound with structural formula V, 2-{3-methyl-4-(4′-aminophenoxy)phenyl}-1,2,4-triazine-3,5(2H,4H)^− diketone], the “ACI (anticoccidial index)” value [1, 5] was 151.5, the Cecal lesion score [1, 5] was 15 and the Survival rate % [1, 5] was 100%. The “Relative weight gain rate %” value [1, 5] was 81.5%, the Oocyst value [1, 5] was 15 and the “ACI (anticoccidial index)” value [1, 6] was 158.1. For the same compound, the Cecal lesion score [1, 6] was 10, the Survival rate % [1, 6] was 100% and the “Relative weight gain rate %” value [1, 6] was 83.1%. For the same compound, the Oocyst value [1, 6] was 15.

In the case of `N#CC(c1ccc(Cl)cc1)c1c(Cl)cc(-n2ncc(=O)[nH]c2=O)cc1Cl` (centres unmarked) [Diclazuril, diclazuril, reference compound], the “ACI (anticoccidial index)” value [1, 7] is reported as 182.1, the Cecal lesion score [1, 7] is reported as 5 and the Survival rate % [1, 7] is reported as 100%. For the same compound, the “Relative weight gain rate %” value [1, 7] was 92.1% and the Oocyst value [1, 7] was 5.
